Assay results from patent US10314823B2, “Substituted 1,2-dihydro-3H-pyrrolo[1,2-c]imidazol-3-one antibacterial compounds” (IDORSIA PHARMACEUTICALS LTD, priority 2015, dated 2019).
Converted amounts (≈) assume the structure as drawn.

Assays:
Test in all cases: Bacterial growth minimal inhibitory concentration (CLSI broth microdilution)
Assay type in all cases: cell-based
E. coli ATCC25922 = settings: Escherichia coli, ATCC25922; quinolone-sensitive strain; cation-adjusted Mueller-Hinton Broth
Experimental: (§1) Minimal Inhibitory Concentrations (MICs; mg/L) were determined in cation-adjusted Mueller-Hinton Broth by a microdilution method following the description given in “Methods for Dilution Antimicrobial Susceptibility Tests for Bacteria that Grow Aerobically”, Approved standard, 7th ed., Clinical and Laboratory Standards Institute (CLSI) Document M7-A7, Wayne, Pa., USA (2006).
(§2) All Reference Example compounds were tested against several Gram-negative bacteria. K. pneumoniae A-651 is a multiply resistant strain (in particular quinolone-resistant), while E. coli ATCC25922 and P. aeruginosa ATCC27853 are quinolone-sensitive strains. The corresponding antibacterial test results are given in Table 1 hereafter (MICs in mg/L).

P. aeruginosa ATCC27853 = settings: Pseudomonas aeruginosa, ATCC27853; quinolone-sensitive strain; cation-adjusted Mueller-Hinton Broth
Experimental: as §1, §2

K. pneumoniae A-651 = settings: Klebsiella pneumoniae, A651; multiply resistant strain (in particular quinolone-resistant); cation-adjusted Mueller-Hinton Broth
Experimental: as §1, §2

MIC (E. coli ATCC25922) [µg/mL] | MIC (P. aeruginosa ATCC27853) [µg/mL] | MIC (K. pneumoniae A-651) [µg/mL] | Structure (SMILES)
2 (≈ 4.32 µM) | 8 (≈ 17.3 µM) | 4 (≈ 8.65 µM) | C[C@@](CCN1Cc2cc(C#CC#CCN3CCOC3=O)cn2C1=O)(C(=O)NO)S(C)(=O)=O [Example 9, (2R)—N-hydroxy-2-methyl-2-(methylsulfonyl)-4-(3-oxo-6-(5-(2-oxooxazolidin-3-yl)penta-1,3-diyn-1-yl)-1H-pyrrolo[1,2-c]imidazol-2(3H)-yl)butanamide]
0.25 (≈ 0.459 µM) | 1 (≈ 1.84 µM) | 0.25 (≈ 0.459 µM) | C[C@@](CCN1Cc2cc(C#Cc3ccc(COC(=O)N4CC(O)C4)cc3)cn2C1=O)(C(=O)NO)S(C)(=O)=O [Example 10, (3R)-4-((2-(4-(hydroxyamino)-3-methyl-3-(methylsulfonyl)-4-oxobutyl)-3-oxo-2,3-dihydro-1H-pyrrolo[1,2-c]imidazol-6-yl)ethynyl)benzyl 3-hydroxyazetidine-1-carboxylate]
0.5 (≈ 0.915 µM) | 2 (≈ 3.66 µM) | 0.5 (≈ 0.915 µM) | CN(CCO)C(=O)OCc1ccc(C#Cc2cc3n(c2)C(=O)N(CC[C@](C)(C(=O)NO)S(C)(=O)=O)C3)cc1 [Example 11, (3R)-4-((2-(4-(hydroxyamino)-3-methyl-3-(methylsulfonyl)-4-oxobutyl)-3-oxo-2,3-dihydro-1H-pyrrolo[1,2-c]imidazol-6-yl)ethynyl)benzyl (2-hydroxyethyl)(methyl)carbamate]
0.5 (≈ 0.887 µM) | 1 (≈ 1.77 µM) | 2 (≈ 3.55 µM) | C[C@@](CCN1Cc2cc(C#Cc3ccc(CN4CCC(N)C(F)(F)C4)cc3)cn2C1=O)(C(=O)NO)S(C)(=O)=O (stereo partly drawn) [Example 14, (2R)-4-(6-((4-((4-amino-3,3-difluoropiperidin-1-yl)methyl)phenyl)ethynyl)-3-oxo-1H-pyrrolo[1,2-c]imidazol-2(3H)-yl)-N-hydroxy-2-methyl-2-(methylsulfonyl)butanamide]
0.5 (≈ 1.02 µM) | 1 (≈ 2.05 µM) | 2 (≈ 4.09 µM) | C[C@@](CCN1Cc2cc(C#Cc3ccc(C4(F)CNC4)cc3)cn2C1=O)(C(=O)NO)S(C)(=O)=O [Example 15, (2R)-4-(6-((4-(3-fluoroazetidin-3-yl)phenyl)ethynyl)-3-oxo-1H-pyrrolo[1,2-c]imidazol-2(3H)-yl)-N-hydroxy-2-methyl-2-(methylsulfonyl)butanamide]
0.25 (≈ 0.459 µM) | 1 (≈ 1.84 µM) | 0.5 (≈ 0.918 µM) | C[C@@](CCN1Cc2cc(C#Cc3ccc(C4(F)CN(C5COC5)C4)cc3)cn2C1=O)(C(=O)NO)S(C)(=O)=O [Example 16, (2R)-4-(6-((4-(3-fluoro-1-(oxetan-3-yl)azetidin-3-yl)phenyl)ethynyl)-3-oxo-1H-pyrrolo[1,2-c]imidazol-2(3H)-yl)-N-hydroxy-2-methyl-2-(methylsulfonyl)butanamide]
0.25 (≈ 0.437 µM) | 2 (≈ 3.5 µM) | 0.5 (≈ 0.875 µM) | CN1CCN(C(=O)OCc2ccc(C#Cc3cc4n(c3)C(=O)N(CC[C@](C)(C(=O)NO)S(C)(=O)=O)C4)cc2)CC1 [Example 17, (3R)-4-((2-(4-(hydroxyamino)-3-methyl-3-(methylsulfonyl)-4-oxobutyl)-3-oxo-2,3-dihydro-1H-pyrrolo[1,2-c]imidazol-6-yl)ethynyl)benzyl 4-methylpiperazine-1-carboxylate]
2 (≈ 4.58 µM) | 2 (≈ 4.58 µM) | 4 (≈ 9.16 µM) | C[C@@](CCN1Cc2cc(C#CC#CC3(F)CNC3)cn2C1=O)(C(=O)NO)S(C)(=O)=O [Example 18, (2R)-4-(6-((3-fluoroazetidin-3-yl)buta-1,3-diyn-1-yl)-3-oxo-1H-pyrrolo[1,2-c]imidazol-2(3H)-yl)-N-hydroxy-2-methyl-2-(methylsulfonyl)butanamide]
0.25 (≈ 0.508 µM) | 2 (≈ 4.06 µM) | 1 (≈ 2.03 µM) | C[C@@](CCN1Cc2cc(C#CC#CC3(F)CN(C4COC4)C3)cn2C1=O)(C(=O)NO)S(C)(=O)=O [Example 19, (2R)-4-(6-((3-fluoro-1-(oxetan-3-yl)azetidin-3-yl)buta-1,3-diyn-1-yl)-3-oxo-1H-pyrrolo[1,2-c]imidazol-2(3H)-yl)-N-hydroxy-2-methyl-2-(methylsulfonyl)butanamide]
0.125 (≈ 0.249 µM) | 1 (≈ 1.99 µM) | 0.25 (≈ 0.497 µM) | CN1CC(F)(c2ccc(C#Cc3cc4n(c3)C(=O)N(CC[C@](C)(C(=O)NO)S(C)(=O)=O)C4)cc2)C1 [Example 20, (2R)-4-(6-((4-(3-fluoro-1-methylazetidin-3-yl)phenyl)ethynyl)-3-oxo-1H-pyrrolo[1,2-c]imidazol-2(3H)-yl)-N-hydroxy-2-methyl-2-(methylsulfonyl)butanamide]
0.5 (≈ 1.12 µM) | 0.5 (≈ 1.12 µM) | 0.5 (≈ 1.12 µM) | CN(C)C1(C#CC#Cc2cc3n(c2)C(=O)N(CC[C@](C)(C(=O)NO)S(C)(=O)=O)C3)CC1 [Example 21, (2R)-4-(6-((1-(dimethylamino)cyclopropyl)buta-1,3-diyn-1-yl)-3-oxo-1H-pyrrolo[1,2-c]imidazol-2(3H)-yl)-N-hydroxy-2-methyl-2-(methylsulfonyl)butanamide]
1 (≈ 1.88 µM) | 4 (≈ 7.51 µM) | 4 (≈ 7.51 µM) | C[C@@](CCN1Cc2cc(C#CC#CC3(COC(=O)N4CC(O)C4)CC3)cn2C1=O)(C(=O)NO)S(C)(=O)=O [Example 22, (3R)-(1-((2-(4-(hydroxyamino)-3-methyl-3-(methylsulfonyl)-4-oxobutyl)-3-oxo-2,3-dihydro-1H-pyrrolo[1,2-c]imidazol-6-yl)buta-1,3-diyn-1-yl)cyclopropyl)methyl 3-hydroxyazetidine-1-carboxylate]
4 (≈ 7.15 µM) | 8 (≈ 14.3 µM) | 4 (≈ 7.15 µM) | CN1CCN(C(=O)OCC2(C#CC#Cc3cc4n(c3)C(=O)N(CC[C@](C)(C(=O)NO)S(C)(=O)=O)C4)CC2)CC1 [Example 23, (3R)-(1-((2-(4-(hydroxyamino)-3-methyl-3-(methylsulfonyl)-4-oxobutyl)-3-oxo-2,3-dihydro-1H-pyrrolo[1,2-c]imidazol-6-yl)buta-1,3-diyn-1-yl)cyclopropyl)methyl 4-methylpiperazine-1-carboxylate]
0.5 (≈ 1.02 µM) | 1 (≈ 2.03 µM) | 1 (≈ 2.03 µM) | C[C@@](CCN1Cc2cc(C#CC#CCOC(=O)N3CC(O)C3)cn2C1=O)(C(=O)NO)S(C)(=O)=O [Example 24, (3R)-5-(2-(4-(hydroxyamino)-3-methyl-3-(methylsulfonyl)-4-oxobutyl)-3-oxo-2,3-dihydro-1H-pyrrolo[1,2-c]imidazol-6-yl)penta-2,4-diyn-1-yl 3-hydroxyazetidine-1-carboxylate]
0.125 (≈ 0.233 µM) | 1 (≈ 1.86 µM) | 0.5 (≈ 0.93 µM) | C[C@@](CCN1Cc2cc(C#Cc3ccc(OCCS(C)(=O)=O)cc3)cn2C1=O)(C(=O)NO)S(C)(=O)=O [Example 25, (2R)—N-hydroxy-2-methyl-2-(methylsulfonyl)-4-(6-((4-(2-(methylsulfonyl)ethoxy)phenyl)ethynyl)-3-oxo-1H-pyrrolo[1,2-c]imidazol-2(3H)-yl)butanamide]
8 (≈ 14.7 µM) | 4 (≈ 7.36 µM) | 8 (≈ 14.7 µM) | C[C@@](CCN1Cc2cc(C#Cc3ccc(CNC(=O)OC4CNC4)cc3)cn2C1=O)(C(=O)NO)S(C)(=O)=O [Example 26, azetidin-3-yl (3R)-(4-((2-(4-(hydroxyamino)-3-methyl-3-(methylsulfonyl)-4-oxobutyl)-3-oxo-2,3-dihydro-1H-pyrrolo[1,2-c]imidazol-6-yl)ethynyl)benzyl)carbamate]
